Like-named read-outs stand apart in the source and are kept apart here.
Key:
[1] = system: HSV-2 TK^- BA19026589 (clinical isolate); conditions: HEL cells, CPE
[2] = system: HSV-1 wild-type C559142 (clinical isolate); conditions: HEL cells; HSV-1 C559142; CPE
CCR5 = target: T1, CCR5 (Homo sapiens, UniProt P51681); experiment: Intracellular calcium mobilization (FLIPR), U87.CD4.CCR5 cells; assay type: cell-based; conditions: 9.6 µM
T1 construct: expressed in transfected cells; host or cells: U87.CD4.CCR5 (human astroglioma U87)
T1 sequence (P51681 whole entry): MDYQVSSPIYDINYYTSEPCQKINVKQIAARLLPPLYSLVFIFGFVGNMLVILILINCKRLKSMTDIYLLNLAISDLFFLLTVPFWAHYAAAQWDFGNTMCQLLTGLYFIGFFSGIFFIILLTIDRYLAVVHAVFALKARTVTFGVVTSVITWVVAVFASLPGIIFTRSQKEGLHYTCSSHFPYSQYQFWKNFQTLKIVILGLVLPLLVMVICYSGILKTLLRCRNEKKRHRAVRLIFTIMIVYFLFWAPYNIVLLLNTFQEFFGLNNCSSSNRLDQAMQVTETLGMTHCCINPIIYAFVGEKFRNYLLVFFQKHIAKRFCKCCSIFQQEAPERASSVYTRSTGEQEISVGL
Method: Calcium (Ca^2+) mobilization assays were performed by the use of a fluorometric imaging plate reader (FLIPR) (Molecular Devices, Sunnyvale, CA) as described previously. Briefly, U87.CD4.CCR5 or U87.CD4.CXCR4 cells were digested by trypsin and seeded in gelatine-coated black-wall 96-well microplates at 2×10^4 cells per well. The next day, the cells were loaded with the fluorescent calcium indicator Fluo-3 acetoxymethyl ester (Molecular Probes, Leiden, The Netherlands) at 4 µM for 45 min at 37°C. Cells were washed 3 times in assay buffer (Hanks’ balanced salt solution with 20 mM HEPES buffer and 0.2% bovine serum albumin, pH 7.4) and incubated for 10 min with Laby A1. The intracellular calcium mobilization induced by LD78β in U87.CD4.CCR5 cells or by SDF-1 in U87.CD4.CXCR4 cells was then measured at 37°C by monitoring the fluorescence as a function of time simultaneously in all the wells. In addition, potential intracellular calcium mobilization induced by Laby A1 was also investigated.

[3] = system: HSV-2 wild-type G (reference strain); conditions: HEL cells; HSV-2 G; CPE
PBMCs = experiment: Activation markers CD25 and CD69 on PBMCs (flow cytometry); assay type: cell-based; conditions: 3 days, LabyA1 9.6 µM, PHA 0.016 µM
Method: The effects of 9.6 µM LabyA1 and 0.016 µM PHA on the expression levels of the cellular activation markers CD25 and CD69 on PBMCs was measured after 3 days of incubation at 37°C. After washing with PBS/FCS2%, cells were incubated with anti-CD4 conjugated with PerCP (BD Biosciences) and co-stained with the PE-conjugated mAbs anti-CD25 or anti-CD69 (both BD Biosciences) for 30 min at 4°C. For aspecific background staining, cells were incubated with SimulTest™ Control (IgGγ1-FITC/IgGγ2a-PE). After washing, and fixation with 1% formaldehyde solution, samples were analyzed using the FACSCalibur and CellQuest software (BD Biosciences).

HIV-1 NL4.3 (X4) = conditions: read-out: EC50 (µM ± SEM), PBMCs, p24 Ag ELISA
HIV-1 BaL (R5) = conditions: read-out: EC50 (µM ± SEM), MDM, p24 Ag ELISA
Method: Afterwards, the non-adherent cells were gently mixed and removed from the adherent cell layer. The cells were carefully washed and this washing step was repeated after 6 days of incubation at 37°C. The adherent cells were then infected with HIV-1 R5 BaL.
MDM were seeded in a 48-well plate in 1 ml medium. […] Each concentration was tested in triplicate. After an incubation of 30 minutes at 37°C, 1000 pg/well of p24 Ag of HIV-1 R5 BaL was added. Three weeks post-infection, supernatant was collected and viral replication evaluated by p24 HIV-1 Ag ELISA.

[4] = system: drug-resistant HIV strains; conditions: read-out: Median EC50; median over 6 drug-resistant HIV-1 strains in MT-4
[5] = system: laboratory-adapted HIV strains
HIV-1 IIIB^FGMres. (X4) = conditions: read-out: EC50 (µM ± SEM); MT-4 cells; IIIB resistant to feglymycin (FGM); MTS/PES
[6] = system: HSV-1 wild-type RV-175 (clinical isolate); conditions: HEL cells; HSV-1 RV-175; CPE
[7] = system: HIV-1 CI#17 (clinical isolate; X4); conditions: PBMCs; CI#17, group M subtype B; p24 Ag ELISA

## C/C=C1\NC(=O)[C@H](Cc2ccccc2)NC(=O)[C@@H]2CCCN2C(=O)[C@H](C(C)C)NC(=O)[C@H](Cc2c[nH]c3ccccc23)NC(=O)[C@]23CSC[C@H](NC1=O)C(=O)N[C@H](C(=O)O)CSSC[C@H](NC(=O)[C@@H]1CSC[C@]4(C[C@H](N)C(=O)N[C@@H](CC(N)=O)C(=O)N[C@@H](C)C(=O)N4)C(=O)N[C@@H](C(C)C)C(=O)N[C@@H](Cc4c[nH]c5ccccc45)C(=O)N[C@@H](CCC(=O)O)C(=O)N1)C(=O)N[C@@H](C2)C(=O)N[C@@H]([C@@H](C)O)C(=O)NCC(=O)N3 [LabyA1, labyrinthopeptin A1]
[1]
  EC50: 0.29 ± 0.1 µM
[2]
  EC50: 0.45 ± 0.02 µM
CCR5
  induction of calcium signaling by compound itself: could not induce by itself calcium signaling
CCR5; 10 ng/ml LD78β
  inhibition of LD78β (CCL3L1)-induced intracellular calcium flux: could also not inhibit the intracellular calcium flux
[3]
  EC50: 0.32 ± 0.05 µM
PBMCs; untreated 1.4±0.8%
  percentage of CD4+CD69+ cells: no significant effects
PBMCs; untreated 10.7±3.2%
  percentage of CD4+CD25+ cells: no significant effects
HIV-1 NL4.3 (X4)
  EC50: 0.79 ± 0.09 µM
HIV-1 BaL (R5)
  EC50: 2.4 ± 0.8 µM
[4]
  EC50: 2.1 µM
[5]; read-out: EC50 range, range over cell-line adapted HIV strains (Table 1)
  EC50: 0.79 to 3.3 µM
[5]; read-out: Median EC50, median over laboratory-adapted HIV strains in MT-4, PBMCs, MDM
  EC50: 1.9 µM
HIV-1 IIIB^FGMres. (X4)
  EC50: 1.9 ± 0.1 µM
[6]
  EC50: 2.8 ± 0.5 µM
[7]
  EC50: 1 ± 0.2 µM

From PMC3665789 (PLoS ONE, 2013)
